# Values joined by “and” are separate entries in the source; they are usually repeats but may differ in a detail not shown here. Equal values may be shown once.
# Assays:
# KCa3.1 = molecular target: T1, KCa3.1 (Mus musculus, UniProt O89109); test: Whole-cell patch-clamp of KCa3.1 currents in mouse microglial cells (MMC); assay type: cell-based; settings: 1 µM free Ca2+, ramp -120 to +40 mV, mean ± 95% confidence interval, n = 4, read-out: IC50 for block of microglial KCa3.1 currents
# T1 construct: endogenous in cells; host or cells: immortalized mouse microglial cell (MMC) line
# Description: (§1) An immortalized mouse microglial cell (MMC) line was kindly provided by Dr. D.T. Golenbock (University of Massachusetts Medical School, Worcester, MA) and previously used by our laboratory. Cells were cultured in Gibco’s Dulbecco’s modified Eagle’s Medium (DMEM, high glucose, L-glutamine, high pyruvate) with 5% CO2 at 37° with 1% penicillin/streptomycin and 10% fetal bovine serum. For the qPCR experiments, cells were seeded at 200,000 cells/mL; 24 h later, medium was changed to DMEM with 2% FBS and cells were stimulated with 100 ng/mL lipopolysaccharide (LPS), in the presence or absence of senicapoc, or a 0.2% DMSO control. Cells were pre-incubated with senicapoc for 1 h prior to stimulation and harvested 24 h after stimulation.
# MMCs were plated on poly-lysine-coated glass coverslips and KCa3.1 currents recorded in the whole-cell mode of the patch-clamp technique with an EPC-10 HEKA amplifier and 1 microM of free Ca^2+ in the pipette solution as previously described.
# [1] = tested on: MMC (mouse microglial cell line); test: RT-qPCR of inflammatory markers in LPS-stimulated MMC; assay type: cell-based; settings: 24 h 100 ng/mL LPS
# Description: as §1
# After MRIs were completed, mice were euthanized with an overdose of isoflurane, brains harvested, split into ipsilateral and contralateral hemispheres, and immediately frozen with liquid N2. Brain hemispheres were homogenized in mortar and pestles with liquid N2. RNA was extracted from brain homogenates (Fig. 7b) or MMC cell pellets (Fig. 2) with Trizol (ThermoFisher, Catalog # 15,596,026) according to the manufacturer’s protocol. RNA purity and concentration were assessed using a Nanodrop Spectrophotometer ND-1000 (Marshall Scientific). The 260 nm/280 nm absorption ratios for the samples ranged from 1.95 to 2.00. Subsequently, a cDNA library was made with a High-Capacity cDNA Reverse Transcription Kit (ThermoFisher Scientific, Catalog# 4,374,967), with 2 µg of total RNA per […]. Reactions were carried out in a PTC-200 Peltier Thermal Cycler; the conditions were as follows: 25 °C for 10 min, 37 °C for 120 min, 85 °C for 5 min, with final storage at 4 °C. RT-qPCR reactions were conducted in an Applied Biosystems Viia7 Real-Time PCR System using Maxima SYBR Green/ROX qPCR Master Mix (ThermoFisher Scientific, Catalog #K022) and with the recommended three-step cycling protocol. […] Fold change was calculated by the ∆∆Ct method. […]
# [2] = tested on: male C57BL/6 J mice, tMCAO; test: Immunohistochemistry (Iba-1, CD3, NeuN) of infarcted hemisphere on day 8 after MCAO; assay type: in vivo, mouse
# From the text: After the MRI on day 8, animals were euthanized with an overdose of isoflurane, and brains were quickly removed and sectioned into four 2-mm-thick coronal slices starting from the frontal pole. […] Cell nuclei were visualized with 4′,6-diamidino-2-phenylindole (DAPI).
# The images were then opened on the BZ-X Analyzer, the left (infarcted) hemisphere for each section extracted and analyzed with a macro within the “Hybrid Cell Count” feature of the BZ-X Analyzer program. Images were thresholded to exclusively the area of stained cells without considering artifacts, ventricles, or folds. Each macro-generated image was verified by careful visual inspection. Results for Iba1 and CD3 are reported as percentage of section area (µm^2) that was positively stained, divided by total section area (µm^2) in the infarcted left hemisphere. NeuN is reported as the inverse of the percentage of section area (µm^2) that was positively stained, divided by total section area (µm^2) in the infarcted left hemisphere in order to quantify the Neu negative area.
# [3] = tested on: male C57BL/6 J mice, tMCAO; test: RT-qPCR of inflammatory markers in brain on day 8 after tMCAO; assay type: in vivo, mouse
# Description: After MRIs were completed, mice were euthanized with an overdose of isoflurane, brains harvested, split into ipsilateral and contralateral hemispheres, and immediately frozen with liquid N2. Brain hemispheres were homogenized in mortar and pestles with liquid N2. RNA was extracted from brain homogenates (Fig. 7b) or MMC cell pellets (Fig. 2) with Trizol (ThermoFisher, Catalog # 15,596,026) according to the manufacturer’s protocol. RNA purity and concentration were assessed using a Nanodrop Spectrophotometer ND-1000 (Marshall Scientific). The 260 nm/280 nm absorption ratios for the samples ranged from 1.95 to 2.00. Subsequently, a cDNA library was made with a High-Capacity cDNA Reverse Transcription Kit (ThermoFisher Scientific, Catalog# 4,374,967), with 2 µg of total RNA per […]. Reactions were carried out in a PTC-200 Peltier Thermal Cycler; the conditions were as follows: 25 °C for 10 min, 37 °C for 120 min, 85 °C for 5 min, with final storage at 4 °C. RT-qPCR reactions were conducted in an Applied Biosystems Viia7 Real-Time PCR System using Maxima SYBR Green/ROX qPCR Master Mix (ThermoFisher Scientific, Catalog #K022) and with the recommended three-step cycling protocol. All CT values were normalized to the geometric mean of three housekeeping genes, β-actin, GAPDH, and 18S, as recommended by Vandesompele et al.. Fold change was calculated by the ∆∆Ct method. Primer sequences are provided in Supplementary Table 1. For brain samples, relative mRNA levels were generated by normalizing to sham.
# Statistical analysis of infarct percentage comparing two groups was performed using unpaired t-test. Statistical analysis of three groups (e.g., vehicle vs senicapoc 10 mg/kg vs senicapoc 40 mg/kg) was performed with analysis of variance (ANOVA) with a post hoc pair-wise comparison using Tukey’s test (Origin software), as previously described. All data are shown as box-and-whisker plots with an overlay of the individual animal data. The boxes show mean ± S.E.M, and the whiskers show confidence intervals. The categorical neurological scoring data in Fig. 3 b is shown as a scatter plot without means or S.E.M and was analyzed with the Mann–Whitney U test as per recommendations for optimal presentation and analysis of non-parametric data in pre-clinical stroke studies by Dirnagl. For the IHC data in Fig. 5 comparing two groups, unpaired t-tests were performed. The brain qPCR data in Fig. 7 was analyzed in Prism using one-way ANOVA followed by Dunnett’s test to correct for multiple comparisons. For all statistical testing, P < 0.05 was used as the level of significance. * = P < 0.05, ** = P < 0.01, *** = P < 0.001.
# [4] = tested on: patients with sickle cell disease and healthy volunteers; settings: cited from earlier work
# [5] = fold-change relative to sham, day 8, adjusted P 0.01
# [6] = fold-change relative to sham, day 8, adjusted P <0.001
compound,measurement,setting,value
NC(=O)C(c1ccccc1)(c1ccc(F)cc1)c1ccc(F)cc1 [senicapoc],IC50,KCa3.1,7 nM and 6.97 nM
same,induction of inflammasome component NLRP3,[1],prevented induction
same,mRNA levels of iNOS and COX-2,[1],significantly reduced
same,"mRNA expression of IL-1β, TNF-α, IL-6 and IL-10",[1]; 1 h pre-incubation,concentration-dependently reduced
same,neuronal death (NeuN-negative area),[2],decreases neuronal death
same,T cell infiltration (CD3 staining),[2]; 40 mg/kg,significantly reduced
same,microglia/macrophage activation and infiltration (Iba1 staining),[2]; 40 mg/kg,significantly reduced
same,"expression of IL-1β, TNF-α, IL-6, CD68, NLRP3, IL-2, IFN-γ, IL-4 and IL-10 in the infarcted hemisphere","[3]; 40 mg/kg started 3 h, day 8, vs vehicle",significantly reduced
same,"il1b mRNA, Mean Diff. vehicle-treated ipsi vs senicapoc-treated ipsi","[3]; fold-change relative to sham, day 8, 40 mg/kg started 3 h, adjusted P <0.001",3.115
same,"tgfb mRNA, Mean Diff. vehicle-treated ipsi vs senicapoc-treated ipsi","[3]; fold-change relative to sham, day 8, adjusted P 0.003",2.876
same,"il4 mRNA, Mean Diff. vehicle-treated ipsi vs senicapoc-treated ipsi",[3]; [5],2.833
same,"nlrp3 mRNA, Mean Diff. vehicle-treated ipsi vs senicapoc-treated ipsi",[3]; [5],4.839
same,"inos mRNA, Mean Diff. vehicle-treated ipsi vs senicapoc-treated ipsi","[3]; fold-change relative to sham, day 8, adjusted P 0.48",6.938
same,"bdnf mRNA, Mean Diff. vehicle-treated ipsi vs senicapoc-treated ipsi","[3]; fold-change relative to sham, day 8, adjusted P 0.79",-11.09
same,"il17a mRNA, Mean Diff. vehicle-treated ipsi vs senicapoc-treated ipsi","[3]; fold-change relative to sham, day 8, adjusted P 0.98",0.3131
same,"cd68 mRNA, Mean Diff. vehicle-treated ipsi vs senicapoc-treated ipsi",[3]; [6],12.76
same,"ifng mRNA, Mean Diff. vehicle-treated ipsi vs senicapoc-treated ipsi",[3]; [6],8.327
same,"il2 mRNA, Mean Diff. vehicle-treated ipsi vs senicapoc-treated ipsi",[3]; [6],10.6
same,"il6 mRNA, Mean Diff. vehicle-treated ipsi vs senicapoc-treated ipsi",[3]; [6],7.107
same,"il10 mRNA, Mean Diff. vehicle-treated ipsi vs senicapoc-treated ipsi",[3]; [6],13.82
same,"tnfa mRNA, Mean Diff. vehicle-treated ipsi vs senicapoc-treated ipsi",[3]; [6],6.221
same,"hemolysis, hematocrit and hemoglobin levels in phase II study","[4]; 10 mg/day, double-blind placebo-controlled",reduced hemolysis and significantly increased hematocrit and hemoglobin levels
same,phase III endpoint: reduction in number of vaso-occlusive pain crises,[4],did not meet the set clinical endpoint
same,tolerability in dose escalating phase I clinical trials,[4]; healthy volunteers and patients with sickle cell disease,well tolerated
